Data as given in patent US20060069132A1, “Azolecarboxamide herbicides” (priority 2004, published 2006).

Legend:
[1] = system: barnyardgrass; assay: Test B pre-/postemergence herbicide test; type: in vivo, Echinochloa crus-galli
How it was run: (§1)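 Pre: seeds sown, then sprayed. Post: 1–4-leaf plants (2–18 cm) sprayed at the same time. Paddy: flooded, treated at 2-leaf stage. Formulation: non-phytotoxic solvent with surfactant. Greenhouse 13–15 days; visual 0–100 score relative to controls.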

[2] = system: Surinam grass; assay: Test B pre-/postemergence herbicide test; type: in vivo, Urochloa decumbens
How it was run: (§2)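 Flooded paddy rice and barnyardgrass were treated at the 2-leaf stage; upland plantings received compound either on sown seed or on 1- to 4-leaf seedlings. All were kept 13–15 days in a greenhouse and scored visually, 0–100, relative to untreated plants.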

[3] = system: cocklebur; assay: Test B pre-/postemergence herbicide test; type: in vivo, Xanthium strumarium
How it was run: as §1

[4] = system: corn; assay: Test B pre-/postemergence herbicide test; type: in vivo, Zea mays
How it was run: as §2

[5] = system: large crabgrass; assay: Test B pre-/postemergence herbicide test; type: in vivo, Digitaria sanguinalis
How it was run: as §2

[6] = system: giant foxtail; assay: Test B pre-/postemergence herbicide test; type: in vivo, Setaria faberi
How it was run: as §2

[7] = system: lambsquarters; assay: Test B pre-/postemergence herbicide test; type: in vivo, Chenopodium album
How it was run: as §2

[8] = system: morningglory; assay: Test B pre-/postemergence herbicide test; type: in vivo, Ipomoea coccinea
How it was run: as §1

[9] = system: pigweed; assay: Test B pre-/postemergence herbicide test; type: in vivo, Amaranthus retroflexus
How it was run: as §2

[10] = system: velvetleaf; assay: Test B pre-/postemergence herbicide test; type: in vivo, Abutilon theophrasti
How it was run: as §2

[11] = system: blackgrass; assay: Test B postemergence herbicide test; type: in vivo, Alopecurus myosuroides
How it was run: (§3)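 Read-out: visual comparison with controls, scored 0 to 100, where 100 means complete control and 0 no effect. Formulated chemicals were applied postemergence to plants 2–18 cm tall (1- to 4-leaf), or to flooded-paddy plants at the 2-leaf stage, then held 13 to 15 days under glass.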

[12] = system: wheat; assay: Test B postemergence herbicide test; type: in vivo, Triticum aestivum; parameters: key to Wheat plant response rating: 0 = no effect, 100 = complete control
How it was run: (§4)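 Postemergence plants were sprayed with formulated test chemicals at 2 to 18 cm height (1- to 4-leaf stage); paddy species were grown to the 2-leaf stage. After 13 to 15 days in a greenhouse, injury was rated visually against untreated controls on a 0–100 scale (0 = no effect, 100 = complete control).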

[13] = system: wild oat; assay: Test B postemergence herbicide test; type: in vivo, Avena fatua
How it was run: as §4

[14] = system: rice; assay: Test B flooded paddy test; type: in vivo, Oryza sativa; conditions: 1000 g ai/ha, scale 0 to 100 (0 no effect, 100 complete control)
How it was run: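 After treating 2-leaf paddy plants or 2–18 cm postemergence plants (1 to 4 leaves) with formulated chemical, researchers kept them in a greenhouse for 13–15 days. Effects were judged visually versus controls: 0 indicates none, 100 total control.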

[15] = system: small flower umbrella sedge; assay: Test B flooded paddy test; type: in vivo, Cyperus difformis; conditions: 1000 g ai/ha, scale 0 to 100 (0 no effect, 100 complete control)
How it was run: as §3

[16] = system: ducksalad; assay: Test B flooded paddy test; type: in vivo, Heteranthera limosa; conditions: 1000 g ai/ha, scale 0 to 100 (0 no effect, 100 complete control)
How it was run: as §3

[17] = system: barnyardgrass; assay: Test B flooded paddy test; type: in vivo, Echinochloa crus-galli; conditions: 1000 g ai/ha, scale 0 to 100 (0 no effect, 100 complete control)
How it was run: as §3

[18] = system: rice; assay: Test C flooded paddy test; type: in vivo, Oryza sativa; conditions: for Plant response rating, Rice: 500 g ai/ha, visual rating after 12 to 14 days
Method: (§5) At the same time, plants selected from these crop and weed species and also winter barley (Hordeum vulgare L.), blackgrass (Alopecurus myosuroides Huds.), canarygrass (Phalaris minor Retz.), chickweed (Stellaria media (L.) Vill.), downy bromegrass (Bromus tectorum L.), green foxtail (Setaria viridis (L.) Beauv.), Italian ryegrass (Lolium multiflorum Lam.), wheat (Triticum aestivum L.), wild oat (Avenafatua L.) and windgrass (Apera spica-venti (L.) Beauv.) were treated with postemergence applications of some of the test chemicals formulated in the same manner. Plants ranged in height from 2 to 18 cm (1- to 4-leaf stage) for postemergence treatments. Plant species in the flooded paddy test consisted of rice (Oryza sativa), smallflower umbrella sedge (Cyperus difformis L.), ducksalad (Heteranthera limosa (Sw.) Willd.) and barnyardgrass (Echinochloa crus-galli (L.) Beauv.) grown to the 2-leaf stage for testing. Treated plants and controls were maintained in a greenhouse for 12 to 14 days, after which time all species were compared to controls and visually evaluated. Plant response ratings, summarized in Table C, are based on a scale of 0 to 100 where 0 is no effect and 100 is complete control. A dash (-) response means no test result.

[19] = system: smallflower umbrella sedge; assay: Test C flooded paddy test; type: in vivo, Cyperus difformis; conditions: for Plant response rating, Sedge, Umbrella: 500 g ai/ha, visual rating after 12 to 14 days
Method: as §5

[20] = system: ducksalad; assay: Test C flooded paddy test; type: in vivo, Heteranthera limosa; conditions: for Plant response rating, Ducksalad: 500 g ai/ha, visual rating after 12 to 14 days
Method: as §5

[21] = system: barnyardgrass; assay: Test C flooded paddy test; type: in vivo, Echinochloa crus-galli; conditions: for Plant response rating, Barnyardgrass: 500 g ai/ha, visual rating after 12 to 14 days
Method: as §5

[22] = 125 g ai/ha, 0 is no effect, 100 is complete control, preemergence
[23] = 125 g ai/ha, visual rating, scale 0 (no effect) to 100 (complete control), postemergence
[24] = Postemergence, 500 g ai/ha, scale 0 (no effect) to 100 (complete control)
[25] = 125 g ai/ha, scale 0 to 100 (0 no effect, 100 complete control)
[26] = 250 g ai/ha, scale of 0 to 100, 0 is no effect, 100 is complete control
[27] = scale 0 to 100 (0 no effect, 100 complete control)
[28] = 62 g ai/ha, scale 0 to 100 (0 no effect, 100 complete control)
[29] = Postemergence, 250 g ai/ha, scale 0 (no effect) to 100 (complete control)
[30] = postemergence, 62 g ai/ha, scale 0 to 100

## C#CCNC(=O)c1cccc(NC(=O)c2nn(C(C)(C)C)nc2C)c1 [Compound 394]
[1]; [22]
  Plant response rating (0 to 100 scale), Barnyardgrass: 30
[1]; [23]
  Barnyardgrass plant response rating: 0
[1]; [24]
  Barnyardgrass plant response rating: 10
[2]; [22]
  Plant response rating (0 to 100 scale), Surinam Grass: 10
[2]; [23]
  Surinam Grass plant response rating: 10
[2]; [24]
  Surinam Grass plant response rating: 20
[3]; [22]
  Plant response rating (0 to 100 scale), Cocklebur: 20
[3]; [23]
  Cocklebur plant response rating: 10
[3]; [24]
  Cocklebur plant response rating: 20
[4]; [22]
  Plant response rating (0 to 100 scale), Corn: 0
[4]; [23]
  Corn plant response rating: 0
[4]; [24]
  Corn plant response rating: 10
[5]; [22]
  Plant response rating (0 to 100 scale), Crabgrass, Large: 40
[5]; [23]
  Crabgrass, Large plant response rating: 10
[5]; [24]
  Crabgrass, Large plant response rating: 20
[6]; [22]
  Plant response rating (0 to 100 scale), Foxtail, Giant: 10
[6]; [23]
  Foxtail, Giant plant response rating: 20
[6]; [24]
  Foxtail, Giant plant response rating: 30
[7]; [22]
  Plant response rating (0 to 100 scale), Lambsquarters: 10
[7]; [23]
  Lambsquarters plant response rating: 30
[7]; [24]
  Lambsquarters plant response rating: 60
[8]; [22]
  Plant response rating (0 to 100 scale), Morningglory: 0
[8]; [23]
  Morningglory plant response rating: 20
[8]; [24]
  Morningglory plant response rating: 20
[9]; [22]
  Plant response rating (0 to 100 scale), Pigweed: 10
[9]; [23]
  Pigweed plant response rating: 30
[9]; [24]
  Pigweed plant response rating: 60
[10]; [22]
  Plant response rating (0 to 100 scale), Velvetleaf: 0
[10]; [23]
  Velvetleaf plant response rating: 10
[10]; [24]
  Velvetleaf plant response rating: 30
[11]; [23]
  Blackgrass plant response rating: 0
[11]; [24]
  Blackgrass plant response rating: 20
[12]; [23]
  Wheat plant response rating: 0
[12]; 500 g ai/ha, scale 0 to 100, 0 no effect, 100 complete control, preemergence
  Wheat plant response rating: 20
[12]; [24]
  Wheat plant response rating: 0
[13]; [23]
  Oat, Wild plant response rating: 0
[13]; [24]
  Oat, Wild plant response rating: 0
[14]
  Rice plant response rating: 60
[15]
  Sedge, Umbrella plant response rating: 90
[16]
  Ducksalad plant response rating: 80
[17]
  Barnyardgrass plant response rating: 70
[18]; 62 g ai/ha, scale 0 to 100
  Rice plant response rating: 0
[18]; [25]
  Rice plant response rating: 0
[18]; [26]
  Rice plant response rating: 45
[18]; [27]
  Plant response rating, Rice: 60
[19]; 62 g ai/ha, scale 0 to 100
  Sedge, Umbrella plant response rating: 0
[19]; [25]
  Sedge, Umbrella plant response rating: 35
[19]; [26]
  Sedge, Umbrella plant response rating: 60
[19]; [27]
  Plant response rating, Sedge, Umbrella: 70
[20]; 62 g ai/ha, scale 0 to 100
  Ducksalad plant response rating: 0
[20]; [25]
  Ducksalad plant response rating: 0
[20]; [26]
  Ducksalad plant response rating: 10
[20]; [27]
  Plant response rating, Ducksalad: 45
[21]; [28]
  Barnyardgrass plant response rating: 0
[21]; [25]
  Barnyardgrass plant response rating: 0
[21]; [26]
  Barnyardgrass plant response rating: 0
[21]; [27]
  Plant response rating, Barnyardgrass: 20

## CCNC(=O)c1cccc(NC(=O)c2cn(C(C)(C)C)nc2C(F)(F)F)c1 [Compound 192]
[1]; [29]
  Barnyardgrass plant response rating: 10
[1]; [30]
  Barnyardgrass plant response rating: 0
[2]; [29]
  Surinam Grass plant response rating: 10
[2]; [30]
  Surinam Grass plant response rating: 10
[3]; [29]
  Cocklebur plant response rating: 60
[3]; [30]
  Cocklebur plant response rating: 0
[4]; [29]
  Corn plant response rating: 10
[4]; [30]
  Corn plant response rating: 10
[5]; [29]
  Crabgrass, Large plant response rating: 20
[5]; [30]
  Crabgrass, Large plant response rating: 10
[6]; [29]
  Foxtail, Giant plant response rating: 20
[6]; [30]
  Foxtail, Giant plant response rating: 10
[7]; [29]
  Lambsquarters plant response rating: 80
[7]; [30]
  Lambsquarters plant response rating: 70
[8]; [29]
  Morningglory plant response rating: 100
[8]; [30]
  Morningglory plant response rating: 60
[9]; [29]
  Pigweed plant response rating: 60
[9]; [30]
  Pigweed plant response rating: 30
[10]; [29]
  Velvetleaf plant response rating: 50
[10]; [30]
  Velvetleaf plant response rating: 20
[11]; [29]
  Blackgrass plant response rating: 0
[11]; [30]
  Blackgrass plant response rating: 0
[12]; 250 g ai/ha, scale 0 to 100, 0 no effect, 100 complete control, preemergence
  Wheat plant response rating: 10
[12]; [29]
  Wheat plant response rating: 0
[12]; [30]
  Wheat plant response rating: 0
[13]; [29]
  Oat, Wild plant response rating: 20
[13]; [30]
  Oat, Wild plant response rating: 10
[14]; visual rating, 13 to 15 days
  Rice plant response rating: 70
[15]; visual rating, 13 to 15 days
  Sedge, Umbrella plant response rating: 80
[16]; visual rating, 13 to 15 days
  Ducksalad plant response rating: 80
[17]; visual rating, 13 to 15 days
  Barnyardgrass plant response rating: 80
[18]; [28]
  Rice plant response rating: 0
[18]; [25]
  Rice plant response rating: 15
[18]; [26]
  Rice plant response rating: 45
[18]; [27]
  Plant response rating, Rice: 70
[19]; [28]
  Sedge, Umbrella plant response rating: 70
[19]; [25]
  Sedge, Umbrella plant response rating: 75
[19]; [26]
  Sedge, Umbrella plant response rating: 85
[19]; [27]
  Plant response rating, Sedge, Umbrella: 90
[20]; [28]
  Ducksalad plant response rating: 0
[20]; [25]
  Ducksalad plant response rating: 0
[20]; [26]
  Ducksalad plant response rating: 25
[20]; [27]
  Plant response rating, Ducksalad: 60
[21]; [28]
  Barnyardgrass plant response rating: 0
[21]; 125 g ai/ha, scale of 0 to 100, 0 is no effect, 100 is complete control
  Barnyardgrass plant response rating: 0
[21]; [26]
  Barnyardgrass plant response rating: 0
[21]; [27]
  Plant response rating, Barnyardgrass: 70
